This is an account of results in BindingDB's records for doi:10.7270/Q2TX3CSC (Vanderbilt Screening Center for GPCRs, Ion Channels and …, 2009).

The term EC50 denotes the concentration at which the effect is half-maximal.

Structures are written as SMILES.

For one test, the target named is T1, Solute carrier family 12 member 5 (Homo sapiens, UniProt Q9H2X9).
T1 sequence (Q9H2X9 whole entry): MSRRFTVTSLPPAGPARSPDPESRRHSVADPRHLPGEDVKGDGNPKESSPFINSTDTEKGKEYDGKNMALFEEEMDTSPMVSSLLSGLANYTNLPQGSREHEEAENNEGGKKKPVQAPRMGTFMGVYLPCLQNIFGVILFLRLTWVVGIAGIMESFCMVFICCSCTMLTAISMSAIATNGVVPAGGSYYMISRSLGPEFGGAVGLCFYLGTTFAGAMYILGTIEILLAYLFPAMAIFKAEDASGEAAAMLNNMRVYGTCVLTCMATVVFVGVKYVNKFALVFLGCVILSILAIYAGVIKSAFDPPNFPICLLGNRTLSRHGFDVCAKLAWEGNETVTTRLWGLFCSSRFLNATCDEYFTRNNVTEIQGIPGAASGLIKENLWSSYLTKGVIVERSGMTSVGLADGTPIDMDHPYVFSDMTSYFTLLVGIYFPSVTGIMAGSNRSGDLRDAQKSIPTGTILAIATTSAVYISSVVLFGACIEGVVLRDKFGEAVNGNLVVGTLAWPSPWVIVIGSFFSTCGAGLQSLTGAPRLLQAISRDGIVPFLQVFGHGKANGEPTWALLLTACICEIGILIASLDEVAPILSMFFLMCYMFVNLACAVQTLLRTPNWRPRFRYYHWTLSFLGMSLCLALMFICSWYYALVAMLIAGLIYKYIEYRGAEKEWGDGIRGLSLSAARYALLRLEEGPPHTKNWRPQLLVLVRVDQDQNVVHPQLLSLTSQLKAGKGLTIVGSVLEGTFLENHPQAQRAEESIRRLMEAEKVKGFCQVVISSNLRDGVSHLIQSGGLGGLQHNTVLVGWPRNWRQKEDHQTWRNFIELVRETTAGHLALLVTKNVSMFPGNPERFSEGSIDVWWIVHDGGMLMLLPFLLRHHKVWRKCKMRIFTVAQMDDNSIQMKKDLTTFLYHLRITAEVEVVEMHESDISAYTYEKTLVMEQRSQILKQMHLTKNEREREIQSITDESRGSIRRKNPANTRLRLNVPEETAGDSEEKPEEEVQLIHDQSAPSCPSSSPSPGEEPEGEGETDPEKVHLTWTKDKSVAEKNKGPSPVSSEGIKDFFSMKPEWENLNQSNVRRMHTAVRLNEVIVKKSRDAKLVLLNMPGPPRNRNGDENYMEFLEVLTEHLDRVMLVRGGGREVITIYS
Kind of test: KCC2 modulator potency by thallium flux, dose response, cell-based, HEK293 KCC2, FluoZin-2 fluorescence (AID 1736).
Settings: not given
With `CC1Cc2ccccc2N1C(=O)c1ccc(N2CCCC2)c([N+](=O)[O-])c1` (stereo unspecified) [(2-methyl-2,3-dihydroindol-1-yl)-(3-nitro-4-pyrrolidin-1-yl-phenyl)methanone], the EC50 worked out at 0.772 µM.

`Cc1nn(C)c(C)c1C=C1SC(S)=NC1=O` [MLS000324943] displayed an EC50 of 51.2 µM.

`CCc1ccc(C(=O)COC(=O)c2cc([N+](=O)[O-])ccc2NCCO)cc1` [2-(2-hydroxyethylamino)-5-nitro-benzoic acid [2-(4-ethylphenyl)-2-keto-ethyl] ester] came in with an EC50 of 17.2 µM.

For the molecule `O=C(C1CCCN(S(=O)(=O)c2cccc3nonc23)C1)N1CCC(Cc2ccccc2)CC1` (stereo unspecified) [(1-benzofurazan-4-ylsulfonyl-3-piperidyl)-(4-benzylpiperidino)methanone], a half-maximal response (EC50) required 3810 µM.

Molecule `O=C(Nc1ccc2oc(-c3ccccc3)nc2c1)c1ccncc1` [MLS000109492] had an EC50 of 4.95 µM.

`O=C(COC(=O)c1cc([N+](=O)[O-])ccc1NCc1ccccc1)NC1CCCCC1` [2-(benzylamino)-5-nitro-benzoic acid [2-(cyclohexylamino)-2-keto-ethyl] ester] yielded an EC50 of 0.651 µM.

`O=C(O)CC/C(=C\c1ccccc1[N+](=O)[O-])c1nc2ccccc2s1` [(E)-4-(1,3-benzothiazol-2-yl)-5-(2-nitrophenyl)-4-pentenoic acid] came in with an EC50 of 500 µM.

Molecule `Cc1ccc(OCCC(=O)OCC(=O)N2c3ccccc3CC2C)cc1` (stereo unspecified) [3-(4-methylphenoxy)propanoic acid [2-(2-methyl-2,3-dihydroindol-1-yl)-2-oxoethyl] ester] yielded an EC50 of 3.85 µM.

The molecule `O=C(CSc1nnc(-c2ccc(F)cc2)o1)N1CCN(C(=O)c2ccco2)CC1` [2-[5-(4-Fluoro-phenyl)-[1,3,4]oxadiazol-2-ylsulfanyl]-1-[4-(furan-2-carbonyl)-piperazin-1-yl]-ethanone] gave an EC50 of 7.01 µM.

Consider `Cc1csc(NC(=O)CSc2ccc(-c3ccccc3)nn2)n1` [N-(4-methyl-1,3-thiazol-2-yl)-2-(6-phenylpyridazin-3-yl)sulfanyl-ethanamide], for which the EC50 was 0.249 µM.

With `COc1cc(OC)c(C2=NOC(C(=O)N3CCc4ccccc4C3)C2)cc1Cl` (stereo unspecified) [2-{[3-(5-chloro-2,4-dimethoxyphenyl)-4,5-dihydro-5-isoxazolyl]carbonyl}-1,2,3,4-tetrahydroisoquinoline], a half-maximal response (EC50) required 6.59 µM.

As for `COc1cccc(CNC(=O)CSc2ccc(-c3cccs3)nn2)c1` [MLS000621194], the EC50 came to 19.5 µM.

For `O=C(Nc1ccc2oc(-c3ccccc3F)nc2c1)c1ccco1` [MLS000709180], a half-maximal response (EC50) required 66.5 µM.

Molecule `Cc1cccc(Nc2nnc(SCC(=O)c3ccc(Br)s3)s2)c1C` [1-(5-bromanylthiophen-2-yl)-2-[[5-[(2,3-dimethylphenyl)amino]-1,3,4-thiadiazol-2-yl]sulfanyl]ethanone] returned an EC50 of 1.41 µM.

`CCCCNc1cc(C(=O)O)cc(S(N)(=O)=O)c1Oc1ccccc1` [Fordiuran] showed an EC50 of 4.69e-05 µM.

`O=C(c1ccc(N2CCCCCC2)c([N+](=O)[O-])c1)N1CCc2ccccc21` [1-(4-azepan-1-yl-3-nitrobenzoyl)indoline] came in with an EC50 of 0.373 µM.

Turning to `c1ccc(-n2cnc3cc(NCc4ccncc4)ccc32)cc1` [(1-phenylbenzimidazol-5-yl)-(4-pyridylmethyl)amine], the EC50 amounted to 1.92 µM.

For the molecule `O=C(Cn1cnc2c(nnn2Cc2ccc(F)cc2)c1=O)NCc1ccc2c(c1)OCO2` [2-[3-(4-fluorobenzyl)-7-keto-triazolo[4,5-d]pyrimidin-6-yl]-N-piperonyl-acetamide], the EC50 is 1.69 µM.

On to `O=C(CN(c1ccc2c(c1)OCCO2)S(=O)(=O)c1ccccc1)N1CCN(Cc2ccccc2)CC1` [MLS000693333], for which the EC50 turned out to be 11.7 µM.

With `O=C(OCC(=O)N1CCc2ccccc2C1)c1ccc(N2CCOCC2)c([N+](=O)[O-])c1` [4-(4-morpholinyl)-3-nitrobenzoic acid [2-(3,4-dihydro-1H-isoquinolin-2-yl)-2-oxoethyl] ester], the EC50 was found to be 5.37 µM.

The same test, now with this note: inactive by the depositor's call.
The molecule `CN(C)S(=O)(=O)c1ccc(NC(=O)CSc2ncnc3ccccc23)cc1` [MLS000394067] had an EC50 of 87700 µM.
